Data published in patent US11230543B2, “Biaryl monobactam compounds and methods of use thereof for the treatment of bacterial infections” (priority 2015, dated 2022).
Structures can show the parent of a compound that is named as a salt.

Tests used:
[1] = system: Klebsiella pneumoniae expressing KPC-1 (CL6569); experiment: Antibiotic activity: growth inhibitory concentration (OD600), Klebsiella pneumoniae CL6569; format: cell-based; details: lowest concentration inhibiting 95% of bacterial growth; in the presence of β lactamase inhibitor Relebactam 4 μg/mL; 35±2° C. for 22 hours; tested range 100 μM to 0.098 μM
Outline: (§1)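 Growth inhibition by OD600 after 22 hours incubation at 35±2° C, reported as lowest concentration inhibiting 95% of growth (MITC95). Final compound range 100 μM to 0.098 μM, always combined with β-lactamase inhibitor relebactam (4 μg/mL final); inoculum ~2×10^5 CFU/mL in cation-adjusted Mueller-Hinton II broth.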

[2] = system: Pseudomonas aeruginosa expressing AmpC (CL5701); experiment: Antibiotic activity: growth inhibitory concentration (OD600), Pseudomonas aeruginosa CL5701; format: cell-based; details: lowest concentration inhibiting 95% of bacterial growth; in the presence of β lactamase inhibitor Relebactam 4 μg/mL; 35±2° C. for 22 hours; tested range 100 μM to 0.098 μM
Outline: as §1

| Compound | KP_CL6569 MITC95 [1] [µM] | PA_CL5701 MITC95 [2] [µM] |
| --- | --- | --- |
| C[n+]1cc(-c2ccc(OC[C@H](O/N=C(\C(=O)N[C@@H]3C(=O)N(OS(=O)(=O)[O-])C3(C)C)c3csc(N)n3)C(=O)O)cc2)cn1CCN [Example 17, (S)-3-((Z)-2-(((S)-2-(4-(1-(2-aminoethyl)-2-methyl-1H-pyrazol-2-ium-4-yl)phenoxy)-1-carboxyethoxy)imino)-2-(2-aminothiazol-4-yl)acetamido)-2,2-dimethyl-4-oxoazetidin-1-yl sulfate] | 0.3906 | 6.25 |
| C[n+]1cc(-c2ccc(OC(CO/N=C(\C(=O)N[C@@H]3C(=O)N(OS(=O)(=O)[O-])C3(C)C)c3csc(N)n3)C(=O)O)cc2)cn1CCCN (stereo partly drawn) [Example 84, (3S)-3-((2-(4-(1-(3-aminopropyl)-2-methyl-1H-pyrazol-2-ium-4-yl)phenoxy)-2-carboxyethoxy)imino)-2-(2-aminothiazol-4-yl)acetamido)-2,2-dimethyl-4-oxoazetidin-1-yl sulfate] | 2.5 | 40 |
| Cn1c(-c2ccc(OC[C@](C)(O/N=C(\C(=O)N[C@@H]3C(=O)N(OS(=O)(=O)O)C3(C)C)c3csc(N)n3)C(=O)O)cc2)cn(CCCN)c1=N [Example 107, (S)-3-((Z)-2-((((S)-1-(4-(1-(3-aminopropyl)-2-imino-3-methyl-2,3-dihydro-1H-imidazol-4-yl)phenoxy)-2-carboxypropan-2-yl)oxy)imino)-2-(2-aminothiazol-4-yl)acetamido)-2,2-dimethyl-4-oxoazetidin-1-yl sulfate] | 6.25 | 50 |
| C[n+]1cc(-c2ccc(OC[C@H](O/N=C(\C(=O)N[C@@H]3C(=O)N(OS(=O)(=O)[O-])C3(C)C)c3csc(N)n3)C(=O)O)cc2)cn1CCCN [Example 1, (S)-3-((Z)-2-(2-aminothiazol-4-yl)-2-(((S)-2-(4-(1-(3-ammoniopropyl)-2-methyl-1H-pyrazol-2-ium-4-yl)phenoxy)-1-carboxyethoxy)imino)acetamido)-2,2-dimethyl-4-oxoazetidin-1-yl sulfate 2,2,2-trifluoroacetate] | 0.3906 | 3.125 |
| CC1(C)[C@H](NC(=O)/C(=N\OCCOc2ccc(-c3nc4c([nH]3)CNCC4)cc2)c2csc(N)n2)C(=O)N1OS(=O)(=O)O [Example 86, (S)-3-(2-(2-aminothiazol-4-yl)-2-((2-(4-(4,5,6,7-tetrahydro-3H-imidazo[4,5-c]pyridin-2-yl)phenoxy)ethoxy)imino)acetamido)-2,2-dimethyl-4-oxoazetidin-1-yl hydrogen sulfate] | 1.281 | 25 |
| C[n+]1cc(NCCN)ccc1-c1ccc(OC[C@H](O/N=C(\C(=O)N[C@@H]2C(=O)N(OS(=O)(=O)[O-])C2(C)C)c2csc(N)n2)C(=O)O)cc1 [Example 72, (S)-3-((Z)-2-(((S)-2-(4-(5-((2-aminoethyl)amino)-1-methylpyridin-1-ium-2-yl)phenoxy)-1-carboxyethoxy)imino)-2-(2-aminothiazol-4-yl)acetamido)-2,2-dimethyl-4-oxoazetidin-1-yl sulfate] | 0.3906 | 6.25 |
| C[C@@H]1[C@H](NC(=O)/C(=N\O[C@@H](COc2ccc(-c3cn(CCCN)[n+](C)c3)cc2)C(=O)O)c2csc(N)n2)C(=O)N1S(=O)(=O)[O-] [Example 9, (2R,3S)-3-((Z)-2-(((S)-2-(4-(1-(3-aminopropyl)-2-methyl-1H-pyrazol-2-ium-4-yl)phenoxy)-1-carboxyethoxy)imino)-2-(2-aminothiazol-4-yl)acetamido)-2-methyl-4-oxoazetidine-1-sulfonate] | 0.3906 | 6.25 |
| CN(CC(O/N=C(\C(=O)N[C@@H]1C(=O)N(OS(=O)(=O)[O-])C1(C)C)c1csc(N)n1)C(=O)O)c1ccc(-c2cn(CCCN)[n+](C)c2)cc1 (stereo partly drawn) [Example 92, (3S)-3-(2-((2-((4-(1-(3-aminopropyl)-2-methyl-1H-pyrazol-2-ium-4-yl)phenyl)(methyl)amino)-1-carboxyethoxy)imino)-2-(2-aminothiazol-4-yl)acetamido)-2,2-dimethyl-4-oxoazetidin-1-yl sulfate] | 6.25 | 100 |
| C[n+]1cc(-c2ccc(OC[C@@H](CO)O/N=C(\C(=O)N[C@@H]3C(=O)N(OS(=O)(=O)O)C3(C)C)c3csc(N)n3)cc2)ccc1NCCN [Example 89, (S)-3-((Z)-2-((((R)-1-(4-(6-((2-aminoethyl)amino)-1-methylpyridin-1-ium-3-yl)phenoxy)-3-hydroxypropan-2-yl)oxy)imino)-2-(2-aminothiazol-4-yl)acetamido)-2,2-dimethyl-4-oxoazetidin-1-yl sulfate] | 1.563 | 50 |
| CC1(C)[C@H](NC(=O)/C(=N\O[C@@H](COc2ccc(Nc3nccn3CCCN)nc2)C(=O)O)c2csc(N)n2)C(=O)N1OS(=O)(=O)O [Example 37A, 3-(2-((5-((S)-2-((((Z)-1-(2-aminothiazol-4-yl)-2-(((S)-2,2-dimethyl-4-oxo-1-(sulfooxy)azetidin-3-yl)amino)-2-oxoethylidene)amino)oxy)-2-carboxyethoxy)pyridin-2-yl)amino)-1H-imidazol-1-yl)propan-1-aminium 2,2,2-trifluoroacetate] | 0.78 | 3.13 |
| COC(=O)[C@H](COc1ccc(-c2cn(CCCN)[n+](C)c2)cc1)O/N=C(\C(=O)N[C@@H]1C(=O)N(OS(=O)(=O)[O-])C1(C)C)c1csc(N)n1 [Example 117, (S)-3-((Z)-2-((((S)-3-(4-(1-(3-aminopropyl)-2-methyl-1H-pyrazol-2-ium-4-yl)phenoxy)-1-methoxy-1-oxopropan-2-yl)oxy)imino)-2-(2-aminothiazol-4-yl)acetamido)-2,2-dimethyl-4-oxoazetidin-1-yl sulfate] | 3.125 | 25 |
| Cc1cc(-c2ccc(OC[C@H](O/N=C(\C(=O)N[C@@H]3C(=O)N(OS(=O)(=O)O)C3(C)C)c3csc(N)n3)C(=O)O)cc2)n(CCCN)[n+]1C.O=C([O-])C(F)(F)F [Example 21, 1-(3-aminopropyl)-5-(4-((S)-2-((((Z)-1-(2-aminothiazol-4-yl)-2-(((S)-2,2-dimethyl-4-oxo-1-(sulfooxy)azetidin-3-yl)amino)-2-oxo-ethylidene)amino)oxy)-2-carboxyethoxy)phenyl)-2,3-dimethyl-1H-pyrazol-2-ium 2,2,2-trifluoroacetate] | 0.3906 | 12.5 |
| C[n+]1cc(-c2ccc(OC[C@](C)(O/N=C(\C(=O)N[C@@H]3C(=O)N(OS(=O)(=O)[O-])C3(C)C)c3csc(N)n3)C(=O)O)cc2F)cn1CCCN [Example 105, (S)-3-((Z)-2-((((Sn-1-(4-(1-(3-aminopropyl)-2-methyl-1H-pyrazol-2-ium-4-yl)-3-fluorophenoxy)-2-carboxypropan-2-yl)oxy)imino)-2-(2-aminothiazol-4-yl)acetamido)-2,2-dimethyl-4-oxoazetidin-1-yl sulfate] | 0.3906 | 3.125 |
| C[n+]1cc(OC[C@H](O/N=C(\C(=O)N[C@@H]2C(=O)N(OS(=O)(=O)O)C2(C)C)c2csc(N)n2)C(=O)O)ccc1-c1cnn(CCCN)c1.O=C([O-])C(F)(F)F [Example 26, 2-(1-(3-aminopropyl)-1H-pyrazol-4-yl)-5-((S)-2-((((Z)-1-(2-aminothiazol-4-yl)-2-(((S)-2,2-dimethyl-4-oxo-1-(sulfooxy)azetidin-3-yl)amino)-2-oxo-ethylidene)amino)oxy)-2-carboxyethoxy)-1-methylpyridin-1-ium 2,2,2-trifluoroacetate] | 1.563 | 50 |
| C[n+]1nc(NCCCN)ccc1-c1ccc(OC[C@H](O/N=C(\C(=O)N[C@@H]2C(=O)N(OS(=O)(=O)[O-])C2(C)C)c2csc(N)n2)C(=O)O)cc1 [Example 122, (S)-3-((Z)-2-(((S)-2-(4-(3-((3-aminopropyl)amino)-1-methylpyridazin-1-ium-6-yl)phenoxy)-1-carboxyethoxy)imino)-2-(2-aminothiazol-4-yl)acetamido)-2,2-dimethyl-4-oxoazetidin-1-yl sulfate] | 0.1953 | 3.125 |
| C[n+]1cc(-c2ccc(OC(CO/N=C(\C(=O)N[C@@H]3C(=O)N(OS(=O)(=O)[O-])C3(C)C)c3csc(N)n3)C(=O)O)cc2)cn1CCCN (single isomer, unassigned) [Example 85] | 2.5 | 40 |
| C[n+]1cc(-c2ccc(CCC(O/N=C(\C(=O)N[C@@H]3C(=O)N(OS(=O)(=O)[O-])C3(C)C)c3csc(N)n3)C(=O)O)cc2)cn1CCCN (single isomer, unassigned) [Example 93] | 0.1953 | 6.25 |
| CC1(C)[C@H](NC(=O)/C(=N\O[C@@H](COc2ccc(-c3cnn(CC[N+]4(C)CCOCC4)c3)cc2)C(=O)O)c2csc(N)n2)C(=O)N1OS(=O)(=O)O.O=C([O-])C(F)(F)F [Example 14, 4-(2-(4-(4-((S)-2-((((Z)-1-(2-aminothiazol-4-yl)-2-(((S)-2,2-dimethyl-4-oxo-1-(sulfooxy)azetidin-3-yl)amino)-2-oxoethylidene)amino)oxy)-2-carboxyethoxy)phenyl)-1H-pyrazol-1-yl)ethyl)-4-methylmorpholin-4-ium 2,2,2-trifluoroacetate] | 0.7813 | 12.5 |
| CC1(C)[C@H](NC(=O)/C(=N\O[C@@H](COc2ccc(-c3cn(CCCN)[n+](C[C@@H]4CCNC4)c3)cc2)C(=O)O)c2csc(N)n2)C(=O)N1OS(=O)(=O)[O-] [Example 53, (S)-3-((Z)-2-(((S)-2-(4-(1-(3-aminopropyl)-2-(((R)-pyrrolidin-3-yl)methyl)-1H-pyrazol-2-ium-4-yl)phenoxy)-1-carboxyethoxy)imino)-2-(2-aminothiazol-4-yl)acetamido)-2,2-dimethyl-4-oxoazetidin-1-yl sulfate] | 0.09766 | 1.563 |
